PubChem BioAssay (NCI)
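Compound exposure: 48 hours, 5 concentrations, 96-well plates. Definition used: TGI = concentration required for complete inhibition of growth.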

Tested on: P388/ADR leukemia
Assay: NCI tumour cell line growth inhibition, 48 h

## CO[C@@]12[C@H](COC(N)=O)C3=C(C(=O)C(C)=C(N)C3=O)N1C[C@@H]1N[C@@H]12
  TGI: 16 µM
